Laboratory results from ChEMBL document CHEMBL1136903, “Spiroimidazolidinone NPC1L1 inhibitors. 1: Discovery by 3D-similarity-based virtual screening” (Bioorg Med Chem Lett, 2009).

How the values were obtained:
[1] = biological target: T1, NPC1-like intracellular cholesterol transporter 1 (Homo sapiens, UniProt Q9UHC9); test: Displacement of [35S](2S,3S,4S,5R,6S)-6-(4-((2S,3R)-3-((S)-3-(4-fluorophenyl)-3-hydroxypropyl)-1-(4-(3-(methylsulfonamido)prop-1-ynyl)phenyl)-4-oxoazetidin-2-yl)phenoxy)-3,4,5-trihydroxytetrahydro-2H-pyran-2-carboxylic acid from human recombinant NPC1L1 expressed in HEK293 cells; type: cell-based
T1 sequence (Q9UHC9 whole entry): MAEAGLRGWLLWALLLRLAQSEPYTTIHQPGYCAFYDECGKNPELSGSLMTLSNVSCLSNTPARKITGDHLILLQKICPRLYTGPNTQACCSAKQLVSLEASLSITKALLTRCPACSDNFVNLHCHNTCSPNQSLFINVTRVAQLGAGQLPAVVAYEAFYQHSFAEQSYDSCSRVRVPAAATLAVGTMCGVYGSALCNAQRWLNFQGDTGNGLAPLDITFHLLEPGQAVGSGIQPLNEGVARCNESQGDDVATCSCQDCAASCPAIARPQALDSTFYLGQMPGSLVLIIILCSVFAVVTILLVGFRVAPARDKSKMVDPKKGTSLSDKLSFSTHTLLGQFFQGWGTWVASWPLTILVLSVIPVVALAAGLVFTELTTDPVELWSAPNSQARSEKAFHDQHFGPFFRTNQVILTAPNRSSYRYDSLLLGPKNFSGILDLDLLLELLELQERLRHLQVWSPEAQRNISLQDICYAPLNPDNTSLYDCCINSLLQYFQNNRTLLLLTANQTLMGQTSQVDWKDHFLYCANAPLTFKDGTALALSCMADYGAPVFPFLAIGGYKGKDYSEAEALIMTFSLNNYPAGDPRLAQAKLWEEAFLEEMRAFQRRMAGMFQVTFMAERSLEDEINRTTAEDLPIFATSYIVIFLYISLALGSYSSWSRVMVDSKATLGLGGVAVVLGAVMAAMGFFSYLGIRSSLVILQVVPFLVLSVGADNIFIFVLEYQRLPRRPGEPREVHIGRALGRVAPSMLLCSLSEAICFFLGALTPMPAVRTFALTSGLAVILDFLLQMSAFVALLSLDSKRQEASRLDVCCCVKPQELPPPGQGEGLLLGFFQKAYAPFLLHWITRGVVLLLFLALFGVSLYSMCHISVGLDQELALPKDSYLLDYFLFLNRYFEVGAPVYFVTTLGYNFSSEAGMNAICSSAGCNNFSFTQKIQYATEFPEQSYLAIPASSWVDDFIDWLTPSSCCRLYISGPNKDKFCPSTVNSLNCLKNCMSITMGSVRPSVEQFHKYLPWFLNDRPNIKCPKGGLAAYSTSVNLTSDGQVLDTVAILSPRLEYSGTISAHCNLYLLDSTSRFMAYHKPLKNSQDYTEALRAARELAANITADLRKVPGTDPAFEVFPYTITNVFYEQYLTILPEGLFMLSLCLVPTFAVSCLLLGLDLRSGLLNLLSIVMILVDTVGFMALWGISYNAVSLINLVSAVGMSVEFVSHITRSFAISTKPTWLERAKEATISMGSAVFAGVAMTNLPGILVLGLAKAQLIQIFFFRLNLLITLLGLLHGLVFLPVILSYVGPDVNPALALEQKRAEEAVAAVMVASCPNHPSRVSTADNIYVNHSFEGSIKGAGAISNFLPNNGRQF

[2] = Displacement of [35S](2S,3S,4S,5R,6S)-6-(4-((2S,3R)-3-((S)-3-(4-fluorophenyl)-3-hydroxypropyl)-1-(4-(3-(methylsulfonamido)prop-1-ynyl)phenyl)-4-oxoazetidin-2-yl)phenoxy)-3,4,5-trihydroxytetrahydro-2H-pyran-2-carboxylic acid from NPC1L1 in hamster enterocyte brush border membrane; set-up: species or system Cricetinae
[3] = biological target: T2, Niemann-Pick C1-like 1 protein (Macaca mulatta, UniProt A0MJA5); test: Displacement of [35S](2S,3S,4S,5R,6S)-6-(4-((2S,3R)-3-((S)-3-(4-fluorophenyl)-3-hydroxypropyl)-1-(4-(3-(methylsulfonamido)prop-1-ynyl)phenyl)-4-oxoazetidin-2-yl)phenoxy)-3,4,5-trihydroxytetrahydro-2H-pyran-2-carboxylic acid from NPC1L1 in rhesus monkey enterocyte brush border membrane
T2 sequence (A0MJA5 whole entry): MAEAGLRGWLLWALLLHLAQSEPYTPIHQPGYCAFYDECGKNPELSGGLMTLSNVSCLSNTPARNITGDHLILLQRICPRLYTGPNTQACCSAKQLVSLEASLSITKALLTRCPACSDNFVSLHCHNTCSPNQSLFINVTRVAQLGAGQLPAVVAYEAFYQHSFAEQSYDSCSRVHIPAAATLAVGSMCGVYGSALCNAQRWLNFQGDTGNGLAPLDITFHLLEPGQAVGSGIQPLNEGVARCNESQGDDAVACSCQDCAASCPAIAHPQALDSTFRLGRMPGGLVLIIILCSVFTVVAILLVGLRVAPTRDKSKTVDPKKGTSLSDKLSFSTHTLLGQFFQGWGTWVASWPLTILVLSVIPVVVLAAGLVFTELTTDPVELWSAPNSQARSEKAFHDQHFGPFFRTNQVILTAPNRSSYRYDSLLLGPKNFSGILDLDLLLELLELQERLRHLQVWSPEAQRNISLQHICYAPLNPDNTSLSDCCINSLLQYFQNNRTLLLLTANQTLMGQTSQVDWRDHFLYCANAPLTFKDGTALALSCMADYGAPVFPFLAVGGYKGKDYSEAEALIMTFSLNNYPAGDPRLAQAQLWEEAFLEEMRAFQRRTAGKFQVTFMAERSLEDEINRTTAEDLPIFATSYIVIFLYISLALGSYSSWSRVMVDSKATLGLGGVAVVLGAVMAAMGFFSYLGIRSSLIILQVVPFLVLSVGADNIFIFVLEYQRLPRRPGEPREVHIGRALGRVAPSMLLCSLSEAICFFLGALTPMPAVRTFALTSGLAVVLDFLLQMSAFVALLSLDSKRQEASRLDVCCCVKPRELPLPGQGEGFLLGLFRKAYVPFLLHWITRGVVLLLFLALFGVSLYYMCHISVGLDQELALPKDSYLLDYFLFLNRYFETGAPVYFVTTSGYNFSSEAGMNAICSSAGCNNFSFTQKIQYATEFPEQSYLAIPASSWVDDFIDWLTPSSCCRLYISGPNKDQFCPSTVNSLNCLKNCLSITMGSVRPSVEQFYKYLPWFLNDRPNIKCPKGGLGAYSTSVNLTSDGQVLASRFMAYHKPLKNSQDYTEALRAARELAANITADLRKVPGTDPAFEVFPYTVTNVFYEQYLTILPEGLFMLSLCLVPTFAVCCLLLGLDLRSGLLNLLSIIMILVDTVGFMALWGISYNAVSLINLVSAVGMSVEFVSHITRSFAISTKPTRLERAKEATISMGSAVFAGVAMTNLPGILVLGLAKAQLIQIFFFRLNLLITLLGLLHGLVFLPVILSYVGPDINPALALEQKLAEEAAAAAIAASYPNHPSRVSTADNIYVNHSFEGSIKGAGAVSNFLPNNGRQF

IC50 [1] [µM]	IC50 [2] [µM]	IC50 [3] [µM]	Compound
0.007	0.022	0.02	CS(=O)(=O)NCC#CN1C(=O)[C@H](CC[C@H](O)c2ccc(F)cc2)[C@H]1c1ccc(O[C@@H]2O[C@H](C(=O)O)[C@@H](O)[C@H](O)[C@H]2O)cc1
0.66	62	146	O=C([C@@H]1C[C@@H](c2ccccc2)CN1C(=O)c1ccccc1)N1CCC2(C=Cc3ccccc32)CC1
0.3	0.65	0.03	O=C(O)[C@H]1O[C@@H](Oc2ccc([C@@H]3[C@@H](CC[C@H](O)c4ccc(F)cc4)C(=O)N3c3ccc(F)cc3)cc2)[C@H](O)[C@@H](O)[C@@H]1O
2.5	41	77	CC(C)(C)c1ccc(C(=O)N2CCC3(CC2)C(=O)N(CC(=O)N2CCCCC2)CN3c2ccccc2)cc1
